Assays:
[1] = tested on: human red blood cells (RBCs); assay: In vitro hemolysis assay; format: cell-based; details: 30 min, 37 °C, at IC50 values for HepG2
Experimental: The hematologic toxicity of the most cytotoxic TZD–TSCs, compounds 2 and 3, was tested via in vitro hemolysis assay, following a 30 min treatment of human RBCs at 37 °C with these compounds.
Human red blood cell (RBC) concentrate was obtained from the Regional Blood Donation and Transfusion Centre (Lublin, Poland). The RBC concentrate (5 mL) was washed three times with sterile PBS and centrifuged at 500 g for 3 minutes. The obtained pellet was suspended in sterile PBS to obtain a 2% suspension, which was subsequently mixed with 1 mL of solution of TZD–TSCs 2 and 3. […] The mixtures were incubated at 37 °C for 30 min and, subsequently, centrifuged at 1400× g for 10 min. The amount of free hemoglobin in the supernatants was measured spectrophotometrically at 405 nm. Negative and positive controls were performed by incubating RBCs with sterile PBS and 0.1% Triton-X, respectively. Each experiment was run in triplicate.

HepG2 cells = assay: Cell migration (wound healing) assay, HepG2; format: cell-based, human; details: HepG2, IC50 doses (2: 10.39 μM; 3: 2.97 μM), 24 h
Experimental: (§1) The possible anti-migratory effect of 2 and 3 was examined against HepG2 and T98G cells, which most effectively responded to TZD–TSC treatment. The ability of cells to cover the scratched area was monitored after 24 h of incubation with compounds 2 and 3. […] Thus, we can conclude that the anticancer potential of the investigated compounds is enriched by their anti-metastatic effect.
Cell migration ability was evaluated according to a wound healing assay. On the day of the experiment, HepG2 and T98G cells were collected from monolayers using trypsin/EDTA and seeded on 6-well plates at a density of 1 × 10^5 cells mL^−1. After 24 h, when the confluence of cells reached about 80%, a vertical linear scratch was created in the monolayer with a sterile pipette tip. The cells were washed three times with a phosphate-buffered saline (PBS) to remove all cellular debris. […] The open wound area was measured with the NIH ImageJ software version 1.53t (Bethesda, Rockville, MD, USA). The percentage of wound closure was calculated using the following formula [81]: Wound closure (%)=open wound area at 0 h −open wound area at 24 h or 48 h/open wound area at 0 h×100%

HT29 cells = assay: MTT assay, HT29; format: cell-based, human; details: for IC50: Homo sapiens, HT-29, HT29, MTT, 24 h treatment, mean ± SD; for SI (selectivity index): IC50 CCD 841 CoTr divided by IC50 HT29
Experimental: (§2) The effects of TZD–TSCs 2–5 on the cellular viability of a panel of cell lines were investigated through an 3-(4,5-dimethylthiazol-2-yl)-2,5-diphenyl-2H-tetrazolium bromide (MTT) assay, following a 24 h treatment with the compounds. The panel consisted of three solid tumor cells: T98G (glioblastoma multiforme), HepG2 (hepatocellular carcinoma, epithelial), and HT29 (colon adenocarcinoma, epithelial), as well as noncancerous cells CCD 841 CoTr (normal colon, epithelial).
(§3) Primary single dose screenings of TZD–TSCs 2–5 were performed at a concentration of 200 μg/mL, and those that elicited a greater than 80% inhibition of cell proliferation were analyzed at several concentrations, to find their half-maximal inhibitory concentration (IC50). The IC50 values, reported as the mean ± SD in Table 2, indicate the concentration of the tested compound that inhibits the growth/viability of the cancer cell population by 50%. In this specific case of an MTT assay, which measures the activity of mitochondrial dehydrogenases (as an indicator of cell viability), the IC50 values stand for the concentration that inhibits the metabolic activity of cells by 50%.
(§4) Human colon adenocarcinoma cells, HT29 (ATCC no. HTB-38), derived from a grade I tumor, were cultured in roswell park memorial institute Medium (RPMI) 1640 medium, supplemented with 10% fetal calf serum (FCS) (GibcoTM, Paisley, UK) and antibiotics (100 U/mL penicillin and 100 μg/mL streptomycin) (Sigma, St. Louis, MO), at 37 °C in a humidified atmosphere with 5% CO2. Human normal colon epithelial cells, CCD 841 CoTr (ATCC no. CRL-1807), were cultured in RPMI 1640 + dulbecco’s modified eagle medium (DMEM) (1:1) medium (Sigma, St. Louis, MO), supplemented with 10% FCS and antibiotics, at 34 °C in a 5% CO2/95% air atmosphere. Human glioblastoma T98G cells were cultured in Dulbecco’s Modified Eagle’s Medium (DMEM) (Sigma Aldrich, St. Louis, MO, USA), supplemented with 10% fetal bovine serum (FBS), penicillin (100 U/mL), and streptomycin (100 μg/mL). Human hepatocellular carcinoma cells, HepG2, were maintained in Eagle’s Minimum Essential Medium, supplemented with 10% FBS, penicillin (100 U/mL), and streptomycin (100 μg/mL).
(§5) After 24 h of incubation of the cells with the tested compounds in 100 μL of culture medium, MTT solution (5 mg/mL, 25 μL/well) was added and incubated for an additional 3 h. The purple crystals of formazan which formed in the medium were solubilized overnight in 10% sodium dodecyl sulphate (SDS) in a 0.01 M HCl mixture. The product was quantified spectrophotometrically by measuring its absorbance at 570 nm using an Emax Microplate Reader (Molecular Devices Corporation, Menlo Park, CA, USA).

T98G cells [2] = assay: MTT assay, T98G; format: cell-based, human; details: for IC50: Homo sapiens, T98G, MTT, 24 h treatment, mean ± SD; for SI (selectivity index): IC50 CCD 841 CoTr divided by IC50 T98G
Experimental: as §2, §3, §4, §5

T98G cells [3] = assay: Cell migration (wound healing) assay, T98G; format: cell-based, human; details: 24 h; for Migration of cancer cells (wound healing): IC50 doses (2: 26.82 μM; 3: 28.34 μM); for Reduction in the migratory potential: ½ IC50 concentrations (2: 13.41 μM; 3: 14.17 μM)
Experimental: as §1
Cell migration ability was evaluated according to a wound healing assay. On the day of the experiment, HepG2 and T98G cells were collected from monolayers using trypsin/EDTA and seeded on 6-well plates at a density of 1 × 10^5 cells mL^−1. After 24 h, when the confluence of cells reached about 80%, a vertical linear scratch was created in the monolayer with a sterile pipette tip. The cells were washed three times with a phosphate-buffered saline (PBS) to remove all cellular debris. Subsequently, the cells were cultured in a serum-free medium, containing compounds 2 or 3 in the concentrations equal to their IC50 or ½ IC50 values, as examined for HepG2 and T98G cancer cell lines (data provided in Table 2).Images of the scratch were taken after 0 h and 24 h using an Olympus CKX53 microscope coupled with a XM10 digital camera (Olympus). The experiments were performed at least in duplicate. The scratch area at the beginning of the experiment (0 h) was considered to be 100%. The open wound area was measured with the NIH ImageJ software version 1.53t (Bethesda, Rockville, MD, USA). The percentage of wound closure was calculated using the following formula [81]: Wound closure (%)=open wound area at 0 h −open wound area at 24 h or 48 h/open wound area at 0 h×100%

bacteria = tested on: bacteria; set-up: method as in PMID 29701728; details: in vitro antibacterial potency; cited from earlier work
CCD 841 CoTr cells = assay: Nitric oxide measurement (Griess), CCD 841 CoTr; format: cell-based, human; details: 200 μg/mL
Experimental: Nitrate, i.e., a stable end product of NO, was measured in culture supernatants with a spectrophotometric method based on the Griess reaction. Culture supernatants were collected from the cell cultures treated with specific concentrations of the tested compounds (25, 75, 150, and 200 μg/mL, respectively). Briefly, 100 μL of the culture supernatant was placed in 96-well flat-bottomed plates in triplicate and incubated with 100 μL of Griess reagent (1% sulfanilamide/0.1% N-(1-naphthyl)ethylenediamine dihydrochloride) in 3% H3PO4 at room temperature for 10 min. The optical density was measured at 550 nm using a microplate reader. A standard curve was prepared using 0.5–25 μM sodium nitrite (NaNO2) for calibration.

Structure (SMILES) | Hemolytic activity (free hemoglobin released) [1] | Migration of cancer cells (wound healing) (HepG2 cells) | IC50 (HT29 cells) [µM] | SI (selectivity index) (HT29 cells) | IC50 (T98G cells [2]) [µM] | SI (selectivity index) (T98G cells [2]) | Migration of cancer cells (wound healing) (T98G cells [3]) | Reduction in the migratory potential (T98G cells [3]) [%] | Minimal inhibitory concentrations (MICs) (bacteria) [µM] | NO production, [NO2^−] (CCD 841 CoTr cells) [µM]
O=C(C=C1SC(=O)NC1=O)Oc1ccccc1C=NNC(=S)Nc1ccccc1Cl [TZD–TSC 2] | no specific hemolytic activity | almost completely suppressed | 43.9 ± 1.74 | 1.02 | 26.8 ± 1.54 | 1.66 | almost completely suppressed | > 90 | 8.48 to 16.94 | 0.566
O=C(C=C1SC(=O)NC1=O)Oc1ccccc1C=NNC(=S)Nc1cccc(Cl)c1 [TZD–TSC 3] | no specific hemolytic activity | almost completely suppressed | 78.3 ± 5.47 | 1.28 | 28.3 ± 2.21 | 3.54 | almost completely suppressed | > 90 | 8.48 to 16.94 | 0.492

Reference: PMC10743653, “Combined In Silico and In Vitro Analyses to Assess the Anticancer Potential of Thiazolidinedione–Thiosemicarbazone Hybrid Molecules” (International Journal of Molecular Sciences, 2023)
